# Columns and labels:
# [1] = system: five B-ALL samples (NALM-6, SUP-B15, RCH-ACV, HM3101, ALL121); test: Combination of dex and CAL-101: isoboles and combination index (Calcusyn); type: cell-based, human; settings: lowest value over the samples; super additive <1, Calcusyn
# Description: (§1) Cell death assays: We used PrestoBlue to measure cell viability in response to knockdown and treatment. Cells were grown to a density of 250,000 cell/ml, then dispensed into black tissue culture plates and grown overnight. In the morning, cells were treated. For both CAL-101 (Selleckchem, S2226) and dex (Sigma, D4902), viability was measured after 3 days. As PrestoBlue measures NADPH/NADH metabolites, the balance of which can be affected by GC treatment, we performed frequent cell count spot checks manually by trypan blue exclusion to ensure that fluorescence measurements reflected true viability. Both CAL-101 and dex were dissolved in ethanol, and used 1:1000 in cell culture for a final ethanol concentration of 0.1%. Combination treatments were performed in triplicate in 384 well plates with 20 dilutions of dex from 10^M to 0 and 9 dilutions of CAL-101 from 10^M to 0. Viabilities and EC50 were then calculated using four parameter non-least squares fitting using Prism 6. qPCR of Causative genes: Cells were grown to a density of 1 million cells/ml, then aliquoted into 6 well plates in the afternoon, then grown overnight. Cells were then treated with the drugs and times indicated, at which point cells were spun down at 400 g for 5 minutes, the medium aspirated, and the pellet resuspended in 0.7 ml Qiazol/Trizol and frozen. […]
# [2] = system: resistant patient sample HM3101; test: Cell death assay (PrestoBlue viability, 3 days); type: cell-based, human; settings: HM3101, highest concentration (10 μM)
# Description: as §1, with “Combination treatments were performed in triplicate in 384 well plates with 20 dilutions of dex from 10^M to 0 and 9 dilutions of CAL-101 from 10^M to 0.” left out, “overnight.” for “overnight. Cells were then treated with the drugs and times indicated, at which point cells were spun down at 400 g for 5 minutes, the medium aspirated, and the pellet resuspended in 0.7 ml Qiazol/Trizol and frozen.”
# The results as shown in FIGS. 14A-14B generally highlight the EC50 of BCP-ALL specimens for dexamethasone and CAL-101. […] Cell viability was measured by PrestoBlue staining. […] Bar plot of the EC50, calculated by four-parameter least-squares fitting (Both plotted and calculated in GraphPad Prism). […]
# RCH-ACV = test: qPCR of effector genes, dex and CAL-101 alone and combined, 24 hours; type: cell-based, human; settings: addition of CAL-101 to dex
# Description: (§2) Cell death assays: We used PrestoBlue to measure cell viability in response to knockdown and treatment. Cells were grown to a density of 250,000 cell/ml, then dispensed into black tissue culture plates and grown overnight. In the morning, cells were treated. For both CAL-101 (Selleckchem, S2226) and dex (Sigma, D4902), viability was measured after 3 days. As PrestoBlue measures NADPH/NADH metabolites, the balance of which can be affected by GC treatment, we performed frequent cell count spot checks manually by trypan blue exclusion to ensure that fluorescence measurements reflected true viability. Both CAL-101 and dex were dissolved in ethanol, and used 1:1000 in cell culture for a final ethanol concentration of 0.1%. Combination treatments were performed in triplicate in 384 well plates with 20 dilutions of dex from 10^M to 0 and 9 dilutions of CAL-101 from 10^M to 0. Viabilities and EC50 were then calculated using four parameter non-least squares fitting using Prism 6. qPCR of Causative genes: Cells were grown to a density of 1 million cells/ml, then aliquoted into 6 well plates in the afternoon, then grown overnight. Cells were then treated with the drugs and times indicated, at which point cells were spun down at 400 g for 5 minutes, the medium aspirated, and the pellet resuspended in 0.7 ml Qiazol/Trizol and frozen. RNA was then isolated using the miRNAeasy protocol. cDNA was then prepared form 1^g of RNA suing SuperScript3, and qPCR performed using BioRad iQ mix. Primers for qPCR were designed using the IDT web site, then tested for each gene. […] Expression levels for each gene were corrected for primer efficiency, normalized to RPL19, then compared to controls (Pfaffl, 2001).
# (§3) The optimal signal was determined by incubating cells with 1 ^M dex for 0, 4, 8, and 24 hours. […] Each experiment was performed at least three times, and analyzed using GraphPad (Prism 6). Significant differences between drug and control and between either drug alone and combinations was determined by two sided Student's t-test (P-Value<0.05).
# SUP-B15 [3] = test: as above; type: cell-based, human; settings: SUP-B15, addition of CAL-101 to dex
# Description: as §2, §3
# NALM-6 = test: as above; type: cell-based, human; settings: NALM-6, CAL-101 alone
# Description: as §2, §3
# SUP-B15 [4] = test: Cell death assay (PrestoBlue viability, 3 days); type: cell-based, human; settings: SUP-B15, highest concentration (10 μM), 3 days
# Description: as §2
# The optimal signal was determined by incubating cells with 1 ^M dex for 0, 4, 8, and 24 hours. […] Cells were incubated with dex alone, CAL-101 alone, and in combination for 24 hours, then harvested and qPCR performed as described above. Each experiment was performed at least three times, and analyzed using GraphPad (Prism 6). Significant differences between drug and control and between either drug alone and combinations was determined by two sided Student's t-test (P-Value<0.05).
# Three cell lines (NALM6, SUP-B15, and RCH-ACV), one resistant patient sample (HM3101), and one relapsed Phlike xenograft (ALL121) were incubated with increasing concentrations of dex or CAL-101 for 3 days. Cell viability was measured by PrestoBlue staining. Curves, values, and errors are based on at least 3 replicates. Bar plot of the EC50, calculated by four-parameter least-squares fitting (Both plotted and calculated in GraphPad Prism).
# [5] = system: relapsed B-ALL cells (ALL121); test: PDX model of ALL: NSG mice engrafted with ALL121, spleen size and human ALL cells in spleen; type: in vivo; settings: idela monotherapy 50 mg/kg daily, two weeks
# Description: As proof of concept, we tested this combination in a PDX model of ALL.
smiles,measurement,setting,value
CC[C@H](Nc1ncnc2[nH]cnc12)c1nc2cccc(F)c2c(=O)n1-c1ccccc1 [CAL-101],combination index of dex and CAL-101,[1],≥ 0.13
same,death caused by CAL-101,[2],< 50%
same,PIK3CD expression,RCH-ACV,no significant effect
same,PIK3CD expression,SUP-B15 [3],no significant effect
same,TXNIP regulation,NALM-6,no effect
same,death caused by CAL-101,SUP-B15 [4],< 50%
same,effect on spleens (spleen size),[5],no effect

# — patent US20200181284A1, “EPIGENETIC INHIBITORS FOR SENSITIZING HEMATOLOGIC OR OTHER MALIGNANCIES TO GLUCOCORTICOID THERAPY” (UNIVERSITY OF SOUTHERN CALIFORNIA, priority 2017, published 2020)
